The test system of one test is human macrophages. Put plainly: PC synthesis in macrophage cultures. It is filed as cell-based. As to conditions: 500 μM CBE for 6 days. The method, then: Human macrophages were obtained from healthy donors. Blood samples were immediately diluted 2.5 times with PBS pH 7.4 and layered on 3 ml Ficoll Histopaque 1.077 in conical tubes. The tubes were then centrifuged at 400 g for 25 min. The peripheral blood mononuclear leukocyte (PBL) band at the PBS-plasma/Ficoll interface was taken for further analyses. PBL were washed twice with PBS pH 7.4, and resuspended in 5 ml of RPMI 1640 containing 10% fetal calf serum. An aliquot of the cell suspension was used to assess cell viability using the exclusion trypan-blue test. The cell suspension was adjusted to a final concentration of 6*10^6 cells/ml and incubated for 3 hours at 37° C. in a plastic Petri dish (Falcon). Non adherent cell suspension (mononuclear leukocytes) was then transferred to a culture flask while the adherent cells (mainly macrophages) were cultured separately in RPMI 1640 supplemented with 10% fetal calf serum, 2 mM L-glutamine, 100 U/ml penicillin and 0.1 mg/ml streptomycin. The cells were cultured in separate cultures with or without 500 μM CBE for 5 days; on day 5, PMA was added to the macrophage suspension (final concentration: 10 ng/ml) to allow full differentiation. […] The cells were thoroughly washed with non-radioactive medium and lipids were further extracted and analyzed as described herein above. […]

The next test concerns rat hippocampal neurons. To be noted: 200 μM CBE, after 3 days in culture; cited from earlier work.
Test [1] relates to CTP:phosphocholine cytidylyltransferase (CCT). Put plainly: CCT assay in homogenates of treated hippocampal neurons. It is filed as cell-based, rat. As to conditions: neurons incubated with 500 μM CBE for 4- or 8-days. How it is done: (§1) Neurons from individual cover slips were washed twice with ice-cold phosphate-buffered saline, and cells removed by scraping into 300 μl of buffer containing 50 mM imidazole, 2 mM EDTA, 150 mM KCl, 6 mM ADP, 0.2 mM phenylmethylsulfonylfluoride, 1 μg/ml pepstatin and 1 μg/ml leupeptin. After brief sonication, an aliquot was removed for DNA determination and 100 μl was used for the CCT assay.
CCT was assayed as described (Weinhold P A and Feldman D A. 1992. Choline-phosphate cytidylyltransferase. Methods Enzymol. 209, 248-258), with some minor modifications. The assay was performed in a final volume of 200 μl containing 1.6 mM phosphorylcholine/0.25 μCi [^14C]methyl phosphorylcholine, 3 mM CTP, 12 mM magnesium acetate, and DOPC liposomes with or without oleic acid and GicCer or GalCer, as indicated in the figure legends. Liposomes were prepared by sonicating resuspended lipids in the assay buffer at room temperature for 3 min using a sonicator (Sonics & Materials Inc., Newtown, Conn.) fitted with a micro-tip probe set to 750 W output, using 25% of the maximal amplitude and with pulsations of 9.0 sec every 9.2 sec, which gave a translucent liposome preparation with no precipitates. The final concentration of DOPC and oleic acid in the liposomes was 500 μM each. […]

Test [2] has the same test system. Briefly: CCT assay in hippocampal neuron homogenates with substance added to the assay mixture. It is filed as biochemical, rat. As to conditions: added directly to the assay mixture. The method, then: as §1
CCT was assayed as described (Weinhold P A and Feldman D A. 1992. Choline-phosphate cytidylyltransferase. Methods Enzymol. 209, 248-258), with some minor modifications. The assay was performed in a final volume of 200 μl containing 1.6 mM phosphorylcholine/0.25 μCi [^14C]methyl phosphorylcholine, 3 mM CTP, 12 mM magnesium acetate, and DOPC liposomes with or without oleic acid and GicCer or GalCer, as indicated in the figure legends. Liposomes were prepared by sonicating resuspended lipids in the assay buffer at room temperature for 3 min using a sonicator (Sonics & Materials Inc., Newtown, Conn.) fitted with a micro-tip probe set to 750 W output, using 25% of the maximal amplitude and with pulsations of 9.0 sec every 9.2 sec, which gave a translucent liposome preparation with no precipitates. The final concentration of DOPC and oleic acid in the liposomes was 500 μM each. The reaction was terminated after 25 min at 37° C. by addition of 200 μl of 150 mM phosphorylcholine in 10% trichloroacetic acid. CDP-choline was recovered by addition of 2 ml of 6% charcoal in water (w/v). After 30 min at room temperature the charcoal suspension was washed 4 times with water and centrifuged at 1,000 gav for 10 min. The aqueous supernatants were removed and CDP-choline was eluted from the charcoal with 3 washes of water/ethanol/28% NH4OH (116:188:11, v/v/v). Eluates were pooled and evaporated to dryness under N2. Phosphorylcholine and CDP-choline were added to the tubes and the samples separated by TLC using 0.9% NaCl/methanol/28% NE4OH (50:70:5, v/v/v) as the developing solvent. Metabolites were identified by iodine, and the CDP-choline spot was scraped into scintillation vials for scintillation counting.
CCT activity was assayed in homogenates prepared from 8-day-old normal rat hippocampal neurons as described herein above. The reaction mixture comprised 0.5 mM DOPC/0.5 mM oleic acid/0.3 mM sphingolipid or lyso-sphingolipid. CCT activity with each sphingolipid or lyso-sphingolipid was measured twice. Basal CCT activity differed by ˜20% between the two experiments; however, the extent of activation or inhibition of CT activity was similar for each sphingolipid and lyso-sphingolipid.

Take `O[C@H]1[C@H](O)[C@@H](O)[C@@H]2O[C@@H]2[C@@H]1O` (racemic) [CBE, conduritol-B-epoxide]: in the test with human macrophages, the “[14C]-PC in treated macrophages” value is reported as “dramatic increase”. The “axons longer than untreated counterparts” value in the test on rat hippocampal neurons is about 20%. The “elevation of CCT activity” value in test [1] is listed as 2-3 fold. Further, in test [2], the “effect on CCT activity when added directly to the assay mixture” value was “had no effect”.
